In patent US20060148030A1, “Nuclear receptor err y 3” (FUJISAWA PHARMACEUTICAL CO., LTD, priority 2002, published 2006):

T1: ERRγ1 (Homo sapiens, UniProt P62508)
T1 sequence (P62508 1-435 isoform P62508-2): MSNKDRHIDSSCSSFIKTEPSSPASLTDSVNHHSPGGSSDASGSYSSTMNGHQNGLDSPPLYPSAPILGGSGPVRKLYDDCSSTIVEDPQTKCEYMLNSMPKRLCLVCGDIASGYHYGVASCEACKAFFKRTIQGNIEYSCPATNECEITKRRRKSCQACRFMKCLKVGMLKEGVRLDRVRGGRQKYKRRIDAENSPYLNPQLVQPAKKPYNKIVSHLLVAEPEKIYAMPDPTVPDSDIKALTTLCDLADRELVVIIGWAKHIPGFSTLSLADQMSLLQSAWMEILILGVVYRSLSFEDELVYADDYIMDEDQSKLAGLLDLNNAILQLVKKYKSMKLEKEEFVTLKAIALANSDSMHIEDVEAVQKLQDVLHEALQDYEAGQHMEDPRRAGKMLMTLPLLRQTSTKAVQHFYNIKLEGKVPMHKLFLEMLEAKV

T2: PPARα (Homo sapiens, UniProt Q07869)
T2 construct: expressed in transfected cells; host or cells: CV-1 (African green monkey kidney)
T2 sequence (Q07869 1-468): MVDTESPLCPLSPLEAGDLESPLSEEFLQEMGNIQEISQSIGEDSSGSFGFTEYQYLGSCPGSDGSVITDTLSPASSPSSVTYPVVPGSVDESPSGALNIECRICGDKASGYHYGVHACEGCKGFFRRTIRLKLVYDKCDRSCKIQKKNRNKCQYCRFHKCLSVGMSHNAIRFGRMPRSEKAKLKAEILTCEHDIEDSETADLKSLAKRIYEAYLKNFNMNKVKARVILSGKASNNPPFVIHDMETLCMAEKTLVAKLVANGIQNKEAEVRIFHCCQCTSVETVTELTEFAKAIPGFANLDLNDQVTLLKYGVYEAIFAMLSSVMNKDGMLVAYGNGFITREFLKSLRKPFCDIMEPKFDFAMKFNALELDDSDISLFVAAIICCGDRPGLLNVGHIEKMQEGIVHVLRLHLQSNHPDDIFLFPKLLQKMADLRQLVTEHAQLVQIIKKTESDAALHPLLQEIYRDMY
T2 sequence (P19793 1-462 partner): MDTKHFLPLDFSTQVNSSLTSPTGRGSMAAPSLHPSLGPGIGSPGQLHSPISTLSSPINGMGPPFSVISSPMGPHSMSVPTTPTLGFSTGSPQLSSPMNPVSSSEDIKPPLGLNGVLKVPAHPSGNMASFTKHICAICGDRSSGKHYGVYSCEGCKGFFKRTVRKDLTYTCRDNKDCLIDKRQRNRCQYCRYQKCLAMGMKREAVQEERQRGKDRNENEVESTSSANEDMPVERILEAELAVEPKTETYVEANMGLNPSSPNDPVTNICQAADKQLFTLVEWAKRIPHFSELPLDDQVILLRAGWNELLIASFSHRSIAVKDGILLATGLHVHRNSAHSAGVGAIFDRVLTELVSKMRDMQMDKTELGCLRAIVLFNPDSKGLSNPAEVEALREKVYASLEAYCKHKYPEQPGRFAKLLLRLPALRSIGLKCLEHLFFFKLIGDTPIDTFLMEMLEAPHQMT


Legend:
[1] = target: T1, ERRγ1; details: stated as known property; cited from earlier work
[2] = target: T2, PPARα; assay: Reporter gene assay, ERRγ3 coexisted with PPARα, pGVP2-PPRE1 in CV-1 cells; format: cell-based; details: 10^−5 M bezafibrate, FIG. 24
Procedure: Transfection was performed as follows: CV-1 cells were resuspended in DMEM supplemented with 10% fetal bovine serum, 2000 U/l of penicillin G, and 100 mg/l of streptomycin to a concentration of 2×10^5 cells/2.5 ml. This was then seeded to a 6-well plate at 2.5 ml per well, and incubated for 18-24 hours in a CO2 incubator at 37° C. and 5% CO2. 1 μg of each of the expression plasmids for the transcription factors, the luciferase reporter plasmid, and another luciferase reporter plasmid used for normalization of the measured values (pRL-TK), were dissolved in Opti-MEM (Gibco BRL), to a total of 150 μl. […] Luciferase activity was measured using the Dual-Luciferase™ Reporter Assay System (Promega). […] The protocol for measurement was as follows: 50 μl of Luciferase Assay Reagent II was added to each well, stirred for 0.3 seconds, and measured for one second. 50 μl of Stop&Glo™ Reagent was then added, stirred for 0.3 seconds, and measured for one second. The measured values for firefly luciferase activity were corrected by dividing by the value for the Renilla luciferase activity, the internal control. Average values and standard errors were calculated from triplicate samples.
The effect of ligands on the function of ERRγ3 in enhancing the transcriptional activation function of peroxisome proliferator activated receptor (PPAR) α, β, or γ was evaluated using the reporter gene assay (FIG. 24). […]

| Molecule | inhibition of the transcriptional activation function of ERRγ1 [1] | modifying effect on the transcriptional stimulation activity of PPARα [2] |
| --- | --- | --- |
| 4-hydroxytamoxifen [reference compound] | inhibiting their transcriptional activation function | – |
| ERRγ3: novel ERRγ isoform, nuclear receptor protein of 396 amino acids (SEQ ID NO: 2) lacking part of the DNA binding domain (protein, listed as Homo sapiens) MSNKDRHIDSSCSSFIKTEPSSPASLTDSVNHHSPGGSSDASGSYSSTMNGHQNGLDSPPLYPSAPILGGSGPVRKLYDDCSSTIVEDPQTKCEYMLNSMPKRLCLVCGDIASGYHYGVASCEACKAFFKRTIQGVRLDRVRGGRQKYKRRIDAENSPYLNPQLAQPAKKPYNKIVSHLLVAEPEKIYAMPDPTVPDSDIKALTTLCDLADRELVVIIGWAKHIPGFSTLSLADQMSLLQSAWMEILILGVVYRSLSFEDELVYADDYIMDEDQSKLAGLLDLNNAILQLVKKYKSMKLEKEEFVTLKAIALANSDSMHIEDVEAVQKLQDVLHEALQDYEAGQHMEDPRRAGKMLMTLPLLRQTSTKAVQHFYNIKLEGKVPMHKLFLEMLEAKV | – | did not show any significant modifying effect |
